Laboratory results: publication PMC8957246, “Synthesis and diverse biological activity profile of triethylammonium isatin-3-hydrazones” (ADMET & DMPK, 2022)
Where two headings read alike, the source gives them in different places.

Assays:
Format in all cases: cell-based
[1] = test system: methicillin-resistant strains of S. aureus (MRSA-1); assay: Antimicrobial activity, serial dilution (MIC/MBC), MRSA-1; conditions: Staphylococcus aureus
Procedure: (§1) The antimicrobial activity of the test compounds was determined by the serial dilution technique in Muller Hinton Broth 2 and in Sabouradu broth for fungi. The cultures used for testing included Gram-positive bacteria: Staphylococcus aureus ATCC 6538P FDA 209P, Bacillus cereus ATCC 10702 NCTC 8035, Enterococcus faecalis ATCC 29212; Gram-negative bacteria: Escherichia coli ATCC 25922, Pseudomonas aeruginosa ATCC 9027, and fungi: Trichophyton mentagrophytes var. gypseum 1773, and Candida albicans ATCC 10231; methicillin-resistant strains of S. aureus (MRSA) was obtained from hospital patients with chronic tonsillitis in the Republican Clinical Hospital (Kazan, Russia). The bacterial load was 3.0 × 10^5 cfu/ml. The fungi load was 2.0 × 10^3 cfu/ml. The results were recorded every 24 h for 5-7 days. Cultures were incubated at 37 °C. The experiment was repeated three times. […] The minimum inhibitory concentration (MIC) was defined as the minimum concentration of a compound that inhibits the growth of the corresponding test microorganism. The growth of bacteria, as well as the absence of the growth due to the bacteriostatic action of compounds, were recorded.
(§2) Synthesized compounds were further evaluated for antimicrobial activity against test microorganisms: Staphylococcus aureus ATCC 209p (Sa), Bacillus cereus ATCC 8035 (Bc), Escherichia coli CDC F-50 (Ec), Enterococcus faecalis (Ef), Pseudomonas aeruginosa ATCC 9027, Aspergillus niger BKMF-1119, Trichophyton mentagrophytes var. gypseum 1773, and Candida albicans 855-653 including methicillin-resistant strains of S. aureus (MRSA 1 and MRSA 2). The minimum inhibitory (MIC) and minimum bactericidal (MBC) concentrations of ammonium salts were determined against these pathogens (Table 1). Due to the lack of activity of compounds 3a-g against Gram-negative bacterial strains and some fungi, the corresponding data are not shown.

[2] = test system: methicillin-resistant strains of S. aureus (MRSA-2); assay: Antimicrobial activity, serial dilution (MIC/MBC), MRSA-2; conditions: Staphylococcus aureus
Procedure: as §1, §2

[3] = test system: Pectobacterium atrosepticum 1043; assay: Bactericidal activity, agar diffusion, P. atrosepticum; conditions: Pectobacterium atrosepticum, 1043, 2 mM/L
Source text: (§3) Plant pathogenic bacterial strains Micrococcus luteus B-109, Pectobacterium atrosepticum 1043, Pectobacterium carotovorum subsp. carotovorum MI, Pseudomonas fluorescens EL-2.1, and Xanthomonas campestris B-610 and fungal strain Fusarium oxysporum IBPPM 543 were obtained from the specialized scientific culture collection of IBPPM RAS (WFCC no. 975, WDCM no. 1021) (CM IBPPM). Pathogenic fungus Phytophthora cactorum VKM F-985 provided by the All-Russian Collection of Microorganisms (VKM) and deposited at A.E. Favorsky Irkutsk Institute of Chemistry, SB RAS, was also used as test organism. Bacteria M. luteus, P. carotovorum subsp. carotovorum, P. atrosepticum, and Ps. fluorescens were grown in meat-peptone medium (BP), and X. campestris was grown in the medium with glucose, yeast extract, and calcium carbonate (GYCa). Solid media contained Bacto agar (18 g/L); pH was adjusted to 7.2-7.4. All bacterial cultures were grown at 28°C. The mycelial cultures of F. oxysporum and P. cactorum were grown on a glucose-peptone-yeast (GPY) nutrient medium at 27 °C. For inoculum preparation, both fungal strains were initially grown on the agar GPY in Petri dishes and then transferred into the seed medium by punching out 5 mm of the agar plate culture with a self-designed cutter.
(§4) Antibacterial and antifungal activities of the compounds were explored using the agar diffusion method and the technique of a phytopathogen radial growth inhibition. Method of diffusion in agar (measuring the diameter of growth inhibition zones) was used for determining the bactericidal activity. The 6-mm wells were made in ager medium (GYCa for Xanthomonas campestris or BP for other bacteria). Bacterial suspensions were distributed over the agar surface, and the tested compound's solution (150 μl) was added to each well. The width of growth inhibition zones around the wells was determined after incubation for 36-40 h.
(§5) The solutions of tested compounds were prepared with a concentration of 2 mmol/l (stock solution). For comparison, test compounds were also commonly applied disinfecting agents and antibiotics.

[4] = test system: Pectobacterium carotovorum subsp. carotovorum MI; assay: Bactericidal activity, agar diffusion, P. carotovorum; conditions: Pectobacterium carotovorum, 2 mM/L
Source text: as §3, §4, §5

[5] = test system: Fusarium oxysporum IBPPM 543; assay: Fungicidal activity, radial growth inhibition, F. oxysporum; conditions: for EC50: Fusarium oxysporum, IBPPM543, 168 h, day 7, EC50 = 50C/I, read-out: EC50, μg/mL at day 7
Source text: as §3
For the fungicidal activity analysis, radial growth (colony diameters) of the fungi on a solid medium in the absence and in the presence of the compounds 3a,c-g solutions at various concentrations were compared. The method consisted of the following: sterile, melted and then cooled to about 60°C GPY agar medium (20.0 ml) was mixed with the precisely measured volumes of the solutions under question, and poured into a sterile Petri dish (90 mm i.d.). After solidification of GPY agar, the media were inoculated by the fungus using 10-day-old cultures of F. oxysporum or P. cactorum. The inoculation was done by transferring a 5-mm (i.d.) GPY-agar block covered with mycelium to the center of the Petri dish followed by incubation in a thermostat at 27°C. The fungicidal effect was scored by the size of mycelium colony on a Petri dish compared to the control without fungicidal admixtures to GPY agar. Each treatment was performed in at least four replicates in two independent experiments. The observation period ended when the control Petri dish was filled with mycelium (usually after 12 days). The inhibition of the phytopathogen colony growth by the compounds 3a,c-g or fludioxonil solutions was calculated as a percentage by which the mycelium radial propagation was decreased compared to the unaffected control, the latter was taken as 100 % of growth (or zero percent of inhibition). The EC50 value was calculated as the compound concentration at which the radial growth of the fungus colony was decreased by 50 % relative to the non-fungicidal control, according to the formula EC50 = 50C/I based on the approach developed e.g., in [34, 35].
as §5

[6] = 150 μl per well, 36-40 h, read-out: width of the inhibition zone
[7] = read-out: Inhibition zone width (mm), not less
[8] = C 6.30 μg/mL, age of the fungus 3 days
[9] = C 6.30 μg/mL, age of the fungus 5 days
[10] = C 6.30 μg/mL, age of the fungus 7 days
[11] = C 6.30 μg/mL, age of the fungus 9 days
[12] = C 12.60 μg/mL, age of the fungus 3 days
[13] = C 12.60 μg/mL, age of the fungus 5 days
[14] = C 12.60 μg/mL, age of the fungus 7 days
[15] = C 12.60 μg/mL, age of the fungus 9 days
[16] = C 25.20 μg/mL, age of the fungus 3 days
[17] = C 25.20 μg/mL, age of the fungus 5 days
[18] = C 25.20 μg/mL, age of the fungus 7 days
[19] = C 25.20 μg/mL, age of the fungus 9 days
[20] = C 37.80 μg/mL, age of the fungus 3 days
[21] = C 37.80 μg/mL, age of the fungus 5 days
[22] = C 37.80 μg/mL, age of the fungus 7 days
[23] = C 37.80 μg/mL, age of the fungus 9 days

Question: For `CCc1cccc2c1N(Cc1cc(C(C)(C)C)c(O)c(C(C)(C)C)c1)C(=O)/C2=N\NC(=O)C[N+](CC)(CC)CC` [Compound 3c, 2-(2-(1-(3,5-Di-tert-butyl-4-hydroxybenzyl)-7-ethyl-2-oxoindolin-3-ylidene)hydrazinyl)-N,N,N-triethyl-2-oxoethanammonium bromide], which MBC [1] is on record?
Answer: 99.3 µM

Question: What about the MIC [1] of the same compound?
Answer: 49.7 ± 3.9 µM

Question: And the MBC [2]?
Answer: 99.3 µM

Question: And the MIC [2]?
Answer: 24.8 ± 2.2 µM

Question: And the zone of inhibition at 2000 µM [3, 6]?
Answer: 9 mm

Question: And the zone of inhibition at 2000 µM [3, 7]?
Answer: ≥ 9 mm

Question: What about the zone of inhibition at 2000 µM [4, 6] of the same compound?
Answer: 9 mm

Question: What about the zone of inhibition at 2000 µM [4, 7] of the same compound?
Answer: ≥ 9 mm

Question: And the “Inhibition value, I (%)” value [5, 8]?
Answer: 2%

Question: And the “Inhibition value, I (%)” value [5, 9]?
Answer: 11%

Question: What about the “Inhibition value, I (%)” value [5, 10] of the same compound?
Answer: 30%

Question: What about the “Inhibition value, I (%)” value [5, 11] of the same compound?
Answer: 17%

Question: And the “Inhibition value, I (%)” value [5, 12]?
Answer: 24%

Question: What about the “Inhibition value, I (%)” value [5, 13] of the same compound?
Answer: 26%

Question: And the “Inhibition value, I (%)” value [5, 14]?
Answer: 33%

Question: And the “Inhibition value, I (%)” value [5, 15]?
Answer: 23%

Question: And the “Inhibition value, I (%)” value [5, 16]?
Answer: 31%

Question: What about the “Inhibition value, I (%)” value [5, 17] of the same compound?
Answer: 33%

Question: And the “Inhibition value, I (%)” value [5, 18]?
Answer: 47%

Question: What about the “Inhibition value, I (%)” value [5, 19] of the same compound?
Answer: 27%

Question: What about the “Inhibition value, I (%)” value [5, 20] of the same compound?
Answer: 44%

Question: And the “Inhibition value, I (%)” value [5, 21]?
Answer: 42%

Question: What about the “Inhibition value, I (%)” value [5, 22] of the same compound?
Answer: 59%

Question: And the “Inhibition value, I (%)” value [5, 23]?
Answer: 38%

Question: And the EC50 [5]?
Answer: 10.5 µg/mL

Question: `CC[N+](CC)(CC)CC(=O)N/N=C1\C(=O)N(Cc2cc(C(C)(C)C)c(O)c(C(C)(C)C)c2)c2c1ccc(C)c2C` [Compound 3d, 2-(2-(1-(3,5-Di-tert-butyl-4-hydroxybenzyl)-6,7-dimethyl-2-oxoindolin-3-ylidene)hydrazinyl)-N,N,N-triethyl-2-oxoethanammonium bromide] was tested. Which MBC [1] did it give?
Answer: 12.4 µM

Question: What about the MIC [1] of the same compound?
Answer: 6.2 ± 0.5 µM

Question: What about the MBC [2] of the same compound?
Answer: 49.6 µM

Question: What about the MIC [2] of the same compound?
Answer: 6.2 ± 0.5 µM

Question: What about the zone of inhibition at 2000 µM [3, 6] of the same compound?
Answer: 8 mm

Question: And the zone of inhibition at 2000 µM [3, 7]?
Answer: ≥ 8 mm

Question: What about the zone of inhibition at 2000 µM [4, 6] of the same compound?
Answer: 8 mm

Question: What about the zone of inhibition at 2000 µM [4, 7] of the same compound?
Answer: ≥ 8 mm

Question: What about the “Inhibition value, I (%)” value [5, 8] of the same compound?
Answer: 0%

Question: What about the “Inhibition value, I (%)” value [5, 9] of the same compound?
Answer: 5%

Question: And the “Inhibition value, I (%)” value [5, 10]?
Answer: 5%

Question: And the “Inhibition value, I (%)” value [5, 11]?
Answer: 0%

Question: What about the “Inhibition value, I (%)” value [5, 12] of the same compound?
Answer: 8%

Question: And the “Inhibition value, I (%)” value [5, 13]?
Answer: 12%

Question: And the “Inhibition value, I (%)” value [5, 14]?
Answer: 13%

Question: And the “Inhibition value, I (%)” value [5, 15]?
Answer: 2%

Question: And the “Inhibition value, I (%)” value [5, 16]?
Answer: 17%

Question: What about the “Inhibition value, I (%)” value [5, 17] of the same compound?
Answer: 15%

Question: And the “Inhibition value, I (%)” value [5, 18]?
Answer: 20%

Question: And the “Inhibition value, I (%)” value [5, 19]?
Answer: 8%

Question: And the “Inhibition value, I (%)” value [5, 20]?
Answer: 22%

Question: What about the “Inhibition value, I (%)” value [5, 21] of the same compound?
Answer: 18%

Question: And the “Inhibition value, I (%)” value [5, 22]?
Answer: 24%

Question: What about the “Inhibition value, I (%)” value [5, 23] of the same compound?
Answer: 9%

Question: And the EC50 [5]?
Answer: 48.5 µg/mL
